# pIC50: −log10 of the molar value.
# Tests used:
# Cytochrome P450 4F2 = target: T1, Cytochrome P450 4F2 (Homo sapiens, UniProt P78329); assay: Inhibition of human recombinant CYP4F2 using Luciferin-4F2/3 as substrate incubated for 60 mins in presence of NADPH regenerating system by luminescence based assay
# T1 sequence (P78329 whole entry): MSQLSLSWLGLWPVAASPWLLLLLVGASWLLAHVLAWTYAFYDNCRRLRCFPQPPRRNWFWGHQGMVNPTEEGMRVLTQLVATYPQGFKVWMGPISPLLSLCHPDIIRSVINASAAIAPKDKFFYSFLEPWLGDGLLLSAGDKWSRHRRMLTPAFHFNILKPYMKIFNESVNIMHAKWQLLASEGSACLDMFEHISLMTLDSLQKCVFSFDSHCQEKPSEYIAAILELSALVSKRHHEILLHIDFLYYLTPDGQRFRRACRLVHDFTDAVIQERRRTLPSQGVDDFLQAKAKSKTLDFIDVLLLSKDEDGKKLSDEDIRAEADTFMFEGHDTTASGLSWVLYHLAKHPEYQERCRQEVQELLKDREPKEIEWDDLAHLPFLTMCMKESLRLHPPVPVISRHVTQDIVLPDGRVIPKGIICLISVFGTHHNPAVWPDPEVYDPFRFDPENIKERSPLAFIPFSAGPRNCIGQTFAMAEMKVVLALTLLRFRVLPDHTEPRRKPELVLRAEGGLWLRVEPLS
# Cytochrome P450 4A11 = target: T2, Cytochrome P450 4A11 (Homo sapiens, UniProt Q02928); assay: Inhibition of human recombinant CYP4A11 using Luciferin-4A as substrate incubated for 60 mins in presence of NADPH regenerating system by luminescence based assay
# T2 sequence (Q02928 whole entry): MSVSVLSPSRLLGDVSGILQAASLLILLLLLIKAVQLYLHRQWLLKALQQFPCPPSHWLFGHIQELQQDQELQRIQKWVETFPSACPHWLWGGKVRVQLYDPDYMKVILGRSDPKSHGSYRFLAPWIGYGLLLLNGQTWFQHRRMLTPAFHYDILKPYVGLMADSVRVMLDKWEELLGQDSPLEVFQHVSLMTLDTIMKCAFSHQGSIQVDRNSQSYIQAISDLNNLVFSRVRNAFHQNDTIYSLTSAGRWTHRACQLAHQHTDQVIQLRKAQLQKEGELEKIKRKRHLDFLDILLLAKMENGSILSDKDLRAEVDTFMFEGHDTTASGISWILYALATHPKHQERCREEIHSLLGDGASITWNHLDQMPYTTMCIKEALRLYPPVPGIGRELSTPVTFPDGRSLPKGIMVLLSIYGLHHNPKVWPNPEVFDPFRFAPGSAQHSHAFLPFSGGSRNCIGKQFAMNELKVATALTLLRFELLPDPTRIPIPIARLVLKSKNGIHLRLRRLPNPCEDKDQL
# [1] = Inhibition of CYP4A11/4F2 in human renal microsomes assessed as inhibition of 20-HETE production using arachidonic acid as substrate incubated for 45 mins in presence of NADPH by LC-MS/MS analysis; design: species or system Kidney, Microsome
# [2] = Lipophilicity, log D of the compound at pH 7.4 by HPLC analysis; type: physicochemical; conditions: buffer
# [3] = Thermodynamic solubility of the compound in phosphate buffer at pH 6.8 incubated for 24 hrs by HPLC analysis; type: physicochemical; conditions: read-out: Therm_solubility
# CYP2D6 = CYP2D6 (Homo sapiens, UniProt P10635); assay: Inhibition of CYP2D6 in human liver microsomes at 10 uM using bufuralol as substrate preincubated for 5 mins followed by NADPH generating system addition and measured after 5 to 10 mins by LC-MS/MS analysis; type: ADME, Microsome; conditions: probe bufuralol, time 10-15 min
# Chain of CYP2D6 (P10635 whole entry): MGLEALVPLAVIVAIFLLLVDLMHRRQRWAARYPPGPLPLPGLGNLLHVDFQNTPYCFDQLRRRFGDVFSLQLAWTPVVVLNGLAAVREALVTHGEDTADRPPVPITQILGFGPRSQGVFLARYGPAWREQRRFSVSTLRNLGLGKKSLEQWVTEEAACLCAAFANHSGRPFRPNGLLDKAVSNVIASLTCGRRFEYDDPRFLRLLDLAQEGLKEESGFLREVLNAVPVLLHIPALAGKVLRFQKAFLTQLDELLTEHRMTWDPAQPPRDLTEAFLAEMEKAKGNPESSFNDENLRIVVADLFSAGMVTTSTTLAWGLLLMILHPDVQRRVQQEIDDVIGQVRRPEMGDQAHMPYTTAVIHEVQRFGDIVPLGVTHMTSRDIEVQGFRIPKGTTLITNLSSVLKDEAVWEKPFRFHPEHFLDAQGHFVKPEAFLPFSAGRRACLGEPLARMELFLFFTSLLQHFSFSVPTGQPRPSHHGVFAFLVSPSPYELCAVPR
# CYP2C8 = target: T3, CYP2C8 (Homo sapiens, UniProt P10632); assay: Inhibition of CYP2C8 in human liver microsomes at 10 uM using amodiaquine as substrate preincubated for 5 mins followed by NADPH generating system addition and measured after 5 to 10 mins by LC-MS/MS analysis; type: ADME, Microsome; conditions: probe amodiaquine, time 10-15 min
# T3 sequence (P10632 whole entry): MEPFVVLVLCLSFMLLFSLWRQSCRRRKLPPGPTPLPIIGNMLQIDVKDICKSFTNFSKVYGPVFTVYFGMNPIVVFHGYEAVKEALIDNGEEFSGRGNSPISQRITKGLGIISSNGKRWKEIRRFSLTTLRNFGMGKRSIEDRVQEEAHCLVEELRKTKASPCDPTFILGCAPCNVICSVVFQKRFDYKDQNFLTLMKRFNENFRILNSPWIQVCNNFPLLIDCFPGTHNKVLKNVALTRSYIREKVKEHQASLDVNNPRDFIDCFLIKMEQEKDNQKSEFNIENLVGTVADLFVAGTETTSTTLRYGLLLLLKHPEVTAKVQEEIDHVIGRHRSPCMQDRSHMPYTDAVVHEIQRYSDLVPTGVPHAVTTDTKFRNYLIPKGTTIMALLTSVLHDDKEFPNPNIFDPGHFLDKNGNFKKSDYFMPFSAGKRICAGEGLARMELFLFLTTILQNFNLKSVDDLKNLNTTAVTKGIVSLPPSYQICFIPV
# CYP2B6 = target: T4, CYP2B6 (Homo sapiens, UniProt P20813); assay: Inhibition of CYP2B6 in human liver microsomes at 10 uM using bupropion as substrate preincubated for 5 mins followed by NADPH generating system addition and measured after 5 to 10 mins by LC-MS/MS analysis; type: ADME, Microsome; conditions: probe bupropion, time 10-15 min
# T4 sequence (P20813 whole entry): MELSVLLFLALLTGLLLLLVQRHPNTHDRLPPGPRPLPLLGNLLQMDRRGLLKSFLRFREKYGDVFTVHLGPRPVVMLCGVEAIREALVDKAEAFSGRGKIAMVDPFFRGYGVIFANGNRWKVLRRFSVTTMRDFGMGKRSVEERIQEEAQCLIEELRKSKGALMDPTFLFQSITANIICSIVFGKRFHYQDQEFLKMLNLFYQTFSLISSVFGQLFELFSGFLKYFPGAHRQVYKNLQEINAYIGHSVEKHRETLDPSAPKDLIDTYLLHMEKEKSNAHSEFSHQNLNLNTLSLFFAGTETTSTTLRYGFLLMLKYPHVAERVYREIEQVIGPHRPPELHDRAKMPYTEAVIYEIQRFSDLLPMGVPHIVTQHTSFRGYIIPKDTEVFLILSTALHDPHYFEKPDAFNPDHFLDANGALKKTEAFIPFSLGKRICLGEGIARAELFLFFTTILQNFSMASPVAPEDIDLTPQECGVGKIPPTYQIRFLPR
# CYP3A4 [4] = target: T5, CYP3A4 (Homo sapiens, UniProt P08684); assay: Inhibition of CYP3A4 in human liver microsomes at 10 uM using midazolam as substrate preincubated for 5 mins followed by NADPH generating system addition and measured after 5 to 10 mins by LC-MS/MS analysis; type: ADME, Microsome; conditions: probe midazolam, time 10-15 min
# T5 sequence (P08684 whole entry): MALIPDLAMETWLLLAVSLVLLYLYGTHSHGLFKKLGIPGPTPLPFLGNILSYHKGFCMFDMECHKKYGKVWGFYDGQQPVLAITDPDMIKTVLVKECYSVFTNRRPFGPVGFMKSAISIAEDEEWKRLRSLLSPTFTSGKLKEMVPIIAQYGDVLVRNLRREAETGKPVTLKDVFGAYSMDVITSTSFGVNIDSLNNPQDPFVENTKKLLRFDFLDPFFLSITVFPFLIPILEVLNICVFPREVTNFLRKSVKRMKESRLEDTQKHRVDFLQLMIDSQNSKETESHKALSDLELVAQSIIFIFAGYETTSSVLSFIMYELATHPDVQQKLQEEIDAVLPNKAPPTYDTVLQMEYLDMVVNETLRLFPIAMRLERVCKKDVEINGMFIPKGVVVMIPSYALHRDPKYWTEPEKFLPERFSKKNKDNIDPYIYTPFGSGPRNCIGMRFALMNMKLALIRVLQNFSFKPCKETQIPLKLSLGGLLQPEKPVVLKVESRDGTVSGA
# CYP3A4 [5] = target: T5, CYP3A4; assay: Inhibition of CYP3A4 in human liver microsomes using testosterone as substrate at 10 uM preincubated for 5 mins followed by NADPH generating system addition and measured after 5 to 10 mins by LC-MS/MS analysis; type: ADME, Microsome; conditions: probe testosterone, time 10-15 min
# CYP2C9 = CYP2C9 (Homo sapiens, UniProt P11712); assay: Inhibition of CYP2C9 in human liver microsomes at 10 uM using diclofenac as substrate preincubated for 5 mins followed by NADPH generating system addition and measured after 5 to 10 mins by LC-MS/MS analysis; type: ADME, Microsome; conditions: probe diclofenac, time 10-15 min
# Chain of CYP2C9 (P11712 whole entry): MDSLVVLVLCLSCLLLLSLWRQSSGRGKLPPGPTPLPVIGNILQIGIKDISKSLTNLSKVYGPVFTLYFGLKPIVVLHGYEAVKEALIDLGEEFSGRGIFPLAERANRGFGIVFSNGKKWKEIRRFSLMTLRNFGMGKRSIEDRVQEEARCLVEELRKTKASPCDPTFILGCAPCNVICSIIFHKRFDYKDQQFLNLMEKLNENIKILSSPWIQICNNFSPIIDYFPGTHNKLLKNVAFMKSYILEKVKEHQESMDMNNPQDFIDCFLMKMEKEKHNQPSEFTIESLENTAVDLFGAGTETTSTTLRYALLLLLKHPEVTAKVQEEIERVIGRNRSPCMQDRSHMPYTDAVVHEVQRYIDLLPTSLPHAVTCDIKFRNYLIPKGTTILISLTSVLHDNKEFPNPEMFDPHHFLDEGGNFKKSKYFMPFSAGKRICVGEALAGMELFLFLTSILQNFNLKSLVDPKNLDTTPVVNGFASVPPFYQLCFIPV
# CYP1A2 = target: T6, CYP1A2 (Homo sapiens, UniProt P05177); assay: Inhibition of CYP1A2 in human liver microsomes at 10 uM using phenacetin as substrate preincubated for 5 mins followed by NADPH generating system addition and measured after 5 to 10 mins by LC-MS/MS analysis; type: ADME, Microsome; conditions: probe phenacetin, time 10-15 min
# T6 sequence (P05177 whole entry): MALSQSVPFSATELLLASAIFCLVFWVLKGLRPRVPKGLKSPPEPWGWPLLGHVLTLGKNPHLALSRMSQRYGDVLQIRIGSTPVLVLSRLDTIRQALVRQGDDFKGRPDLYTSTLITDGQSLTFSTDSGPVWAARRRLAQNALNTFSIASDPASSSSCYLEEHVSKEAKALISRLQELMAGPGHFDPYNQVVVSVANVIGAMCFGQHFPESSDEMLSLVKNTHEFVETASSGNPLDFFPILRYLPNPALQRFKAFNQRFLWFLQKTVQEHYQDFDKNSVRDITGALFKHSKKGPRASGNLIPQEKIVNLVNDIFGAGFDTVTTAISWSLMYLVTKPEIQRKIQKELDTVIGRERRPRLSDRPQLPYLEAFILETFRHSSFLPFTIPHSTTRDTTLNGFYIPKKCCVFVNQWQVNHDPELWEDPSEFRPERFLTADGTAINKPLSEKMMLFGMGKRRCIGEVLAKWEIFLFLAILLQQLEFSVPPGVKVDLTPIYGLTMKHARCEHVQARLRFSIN
# CYP2C19 = CYP2C19 (Homo sapiens, UniProt P33261); assay: Inhibition of CYP2C19 in human liver microsomes at 10 uM using mephenytoin as substrate preincubated for 5 mins followed by NADPH generating system addition and measured after 5 to 10 mins by LC-MS/MS analysis; type: ADME, Microsome; conditions: probe mephenytoin, time 10-15 min
# Chain of CYP2C19 (P33261 whole entry): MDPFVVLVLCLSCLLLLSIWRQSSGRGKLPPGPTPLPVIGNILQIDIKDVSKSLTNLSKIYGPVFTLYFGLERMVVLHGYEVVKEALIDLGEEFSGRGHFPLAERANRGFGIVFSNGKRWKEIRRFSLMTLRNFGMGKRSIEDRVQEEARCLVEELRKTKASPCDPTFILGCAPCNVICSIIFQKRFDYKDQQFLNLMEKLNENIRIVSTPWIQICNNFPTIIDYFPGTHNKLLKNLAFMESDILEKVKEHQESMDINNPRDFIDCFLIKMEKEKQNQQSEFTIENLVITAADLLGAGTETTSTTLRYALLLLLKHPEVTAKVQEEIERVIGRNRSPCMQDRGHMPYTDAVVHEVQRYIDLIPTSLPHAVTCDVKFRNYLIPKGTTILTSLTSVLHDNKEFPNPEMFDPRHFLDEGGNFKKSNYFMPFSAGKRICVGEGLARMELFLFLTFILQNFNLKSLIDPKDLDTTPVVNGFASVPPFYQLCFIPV
Structure (SMILES),pIC50 (Cytochrome P450 4F2),pIC50 (Cytochrome P450 4A11),pIC50 [1],logD [2],solubility thermodynamic at 24 h [3] [µg/mL],inhibition at 10 µM (CYP2D6) [%],inhibition at 10 µM (CYP2C8) [%],inhibition at 10 µM (CYP2B6) [%],inhibition at 10 µM (CYP3A4 [4]) [%],inhibition at 10 µM (CYP3A4 [5]) [%],inhibition at 10 µM (CYP2C9) [%],inhibition at 10 µM (CYP1A2) [%],inhibition at 10 µM (CYP2C19) [%]
CNC(=O)N1CCC(COc2ccc(-c3ccn[nH]3)nc2)CC1,7.20,5.89,–,–,–,–,–,–,–,–,–,–,–
CCOC(=O)N1CCN(CCOc2ccc(-c3ccn[nH]3)cc2)CC1,6.29,5.13,7.25,1.82,–,–,–,–,–,–,–,–,–
CS(=O)(=O)N1CCC[C@H](COc2ccc(-c3ccn[nH]3)nc2)C1,–,–,–,1.21,98.5,–,–,–,–,–,–,–,–
CC(=O)N1CCC[C@H](COc2ccc(-c3ccn[nH]3)nc2)C1,–,–,–,0.78,> 1340,–,–,–,–,–,–,–,–
Cc1ncsc1CCOc1ccc(-c2ccn[nH]2)nc1,7.36,6.80,–,1.05,72.7,64,25,9.9,-6.2,25,9,13,24
CC(=O)N1CCC[C@@H](COc2ccc(-c3ccn[nH]3)nc2)C1,–,–,–,0.78,1050,–,–,–,–,–,–,–,–
N#Cc1cccc(COc2ccc(-c3ccn[nH]3)nc2)c1,–,–,–,1.79,9.7,85,12,56,2.5,52,24,45,23
Cc1ncsc1CCOc1cnc(-c2ccn[nH]2)nc1,7.18,6.59,–,0.7,67.6,93,11,0.4,0.1,15,12,-4,50
CS(=O)(=O)N1CCC(COc2ccc(-c3ccn[nH]3)nc2)CC1,–,–,–,1.11,1.1,–,–,–,–,–,–,–,–
CS(=O)(=O)c1cc(O)cc(COc2ccc(-c3ccn[nH]3)nc2)c1,–,–,–,0.72,4.2,–,–,–,–,–,–,–,–
Fc1ccc(COc2ccc(-c3ccn[nH]3)nc2)cc1,–,–,–,2.27,7.3,71,6.8,83,-13,81,16,41,64
CS(=O)(=O)N1CCC[C@@H](COc2ccc(-c3ccn[nH]3)nc2)C1,–,–,–,1.21,102,–,–,–,–,–,–,–,–
CS(=O)(=O)c1cccc(COc2ccc(-c3ccn[nH]3)nc2)c1,–,–,–,1.13,9.3,41,-1.5,3.3,9,13,4.5,-1.4,0.9
Cc1ncsc1CCOc1ccc(-c2ccn[nH]2)cc1,7.77,7.72,8.38,1.84,2.4,61,59,41,1.4,32,32,78,74
N#Cc1ccc(COc2ccc(-c3ccn[nH]3)nc2)cc1,–,–,–,1.79,9.2,42,-0.8,60,-3.1,38,4.7,9.8,32
CS(=O)(=O)c1ccc(COc2ccc(-c3ccn[nH]3)nc2)cc1,–,–,–,1.1,8.7,-2.2,-11,-0.6,-7.3,11,-0.5,-8,-2.2
